ChEMBL document CHEMBL1201862, “PubChem BioAssay data set” (2004)
The source made the active and inactive calls.

How the values were obtained:
[1] = Luminescence Cell-Based Dose Response HTS to Identify Activators of Luciferase Translation or Activity in H4 […] Cells. [Related pubchem assays: 1829 (Project Summary), 1814 (Primary HTS)]; assay type: functional
[2] = test system: H4; test: Luminescence Cell-Based Dose Response HTS to Identify Activators of 5'UTR Stem-Loop Driven Prion Protein mRNA Translation in H4 Neuroglioblastoma Cells. [Related pubchem assays: 1829 (Project Summary), 1814 (Primary HTS)]; assay type: functional; details: Homo sapiens
[3] = target: T1, Caspase-3 (Homo sapiens, UniProt P42574); assay type: functional;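 further: Dose-response selectivity test against caspase-3 for candidate inhibitors of sentrin-specific proteases (SENPs)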
T1 sequence (P42574 whole entry): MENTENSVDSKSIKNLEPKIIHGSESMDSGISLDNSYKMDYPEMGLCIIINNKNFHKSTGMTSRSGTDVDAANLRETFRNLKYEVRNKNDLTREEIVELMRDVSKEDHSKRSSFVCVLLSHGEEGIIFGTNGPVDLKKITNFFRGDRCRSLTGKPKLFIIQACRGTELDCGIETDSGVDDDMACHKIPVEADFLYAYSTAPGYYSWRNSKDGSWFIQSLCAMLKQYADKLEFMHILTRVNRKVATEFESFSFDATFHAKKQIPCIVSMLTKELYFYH

[4] = target: T2, Sentrin-specific protease 7 (Homo sapiens, UniProt Q9BQF6); assay type: functional;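 further: Luminescence-based dose-response confirmation of ultra-high-throughput screening hits, measuring inhibition of SENP7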
T2 sequence (Q9BQF6 whole entry): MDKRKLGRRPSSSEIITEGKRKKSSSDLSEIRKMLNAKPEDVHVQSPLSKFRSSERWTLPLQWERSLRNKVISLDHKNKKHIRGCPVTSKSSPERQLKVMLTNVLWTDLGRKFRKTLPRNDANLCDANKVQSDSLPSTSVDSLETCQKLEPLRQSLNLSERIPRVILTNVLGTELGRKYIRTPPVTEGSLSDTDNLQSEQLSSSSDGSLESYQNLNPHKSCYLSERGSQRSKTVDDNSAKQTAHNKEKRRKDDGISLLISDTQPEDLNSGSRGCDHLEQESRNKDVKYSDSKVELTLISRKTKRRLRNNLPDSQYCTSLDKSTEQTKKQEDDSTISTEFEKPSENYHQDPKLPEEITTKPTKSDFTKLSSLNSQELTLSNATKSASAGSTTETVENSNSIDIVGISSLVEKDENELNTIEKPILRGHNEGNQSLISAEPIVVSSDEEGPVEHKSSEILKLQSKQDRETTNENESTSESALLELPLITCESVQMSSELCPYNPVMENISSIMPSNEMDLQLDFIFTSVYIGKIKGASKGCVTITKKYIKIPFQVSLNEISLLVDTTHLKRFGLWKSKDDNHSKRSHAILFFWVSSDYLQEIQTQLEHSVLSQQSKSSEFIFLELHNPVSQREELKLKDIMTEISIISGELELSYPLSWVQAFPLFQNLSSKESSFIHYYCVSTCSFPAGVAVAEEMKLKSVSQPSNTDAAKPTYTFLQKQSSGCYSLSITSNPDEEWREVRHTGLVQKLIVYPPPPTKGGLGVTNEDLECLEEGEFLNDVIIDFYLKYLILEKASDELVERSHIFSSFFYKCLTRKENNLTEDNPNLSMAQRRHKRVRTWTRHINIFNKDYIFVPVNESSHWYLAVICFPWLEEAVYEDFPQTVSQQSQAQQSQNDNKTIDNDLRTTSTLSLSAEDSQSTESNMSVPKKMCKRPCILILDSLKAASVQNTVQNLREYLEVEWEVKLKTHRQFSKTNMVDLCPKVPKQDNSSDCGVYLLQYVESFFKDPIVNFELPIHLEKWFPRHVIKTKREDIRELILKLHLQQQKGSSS

[5] = target: T3, Sentrin-specific protease 6 (Homo sapiens, UniProt Q9GZR1); assay type: functional;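 further: Luminescence-based dose-response confirmatory assay of SENP6 inhibition, following up an ultra-high-throughput screen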
T3 sequence (Q9GZR1 whole entry): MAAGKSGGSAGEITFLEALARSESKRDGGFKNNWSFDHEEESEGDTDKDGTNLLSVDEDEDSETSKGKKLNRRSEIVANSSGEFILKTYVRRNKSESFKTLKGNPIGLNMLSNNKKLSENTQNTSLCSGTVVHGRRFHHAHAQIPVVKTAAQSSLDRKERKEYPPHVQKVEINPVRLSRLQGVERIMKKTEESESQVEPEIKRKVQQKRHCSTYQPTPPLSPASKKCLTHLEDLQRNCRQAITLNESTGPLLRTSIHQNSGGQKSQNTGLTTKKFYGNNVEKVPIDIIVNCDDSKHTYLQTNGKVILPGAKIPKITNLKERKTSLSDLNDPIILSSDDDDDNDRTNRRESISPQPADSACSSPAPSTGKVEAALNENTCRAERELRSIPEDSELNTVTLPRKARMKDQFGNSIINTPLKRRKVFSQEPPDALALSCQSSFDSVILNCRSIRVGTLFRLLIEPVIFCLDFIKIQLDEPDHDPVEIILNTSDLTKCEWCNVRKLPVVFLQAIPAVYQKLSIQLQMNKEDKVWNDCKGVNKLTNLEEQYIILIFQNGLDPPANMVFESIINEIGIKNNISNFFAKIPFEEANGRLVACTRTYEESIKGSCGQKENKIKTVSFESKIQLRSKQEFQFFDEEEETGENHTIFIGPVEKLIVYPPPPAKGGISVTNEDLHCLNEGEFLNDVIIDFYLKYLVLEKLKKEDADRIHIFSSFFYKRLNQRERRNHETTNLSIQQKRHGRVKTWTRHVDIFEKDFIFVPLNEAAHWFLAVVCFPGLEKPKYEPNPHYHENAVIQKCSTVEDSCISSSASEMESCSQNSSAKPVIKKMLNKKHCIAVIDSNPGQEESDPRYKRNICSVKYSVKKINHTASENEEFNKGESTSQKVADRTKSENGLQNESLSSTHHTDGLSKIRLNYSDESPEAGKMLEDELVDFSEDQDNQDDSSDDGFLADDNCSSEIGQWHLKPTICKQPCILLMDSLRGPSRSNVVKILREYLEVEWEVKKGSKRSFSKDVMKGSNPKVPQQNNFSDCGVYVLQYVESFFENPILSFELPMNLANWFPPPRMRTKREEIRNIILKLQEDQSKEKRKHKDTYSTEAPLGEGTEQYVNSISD

[6] = target: T4, Sentrin-specific protease 8 (Homo sapiens, UniProt Q96LD8); assay type: functional;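 further: luminescence read-out of SENP8 inhibition, dose-response confirmation following an ultra-high-throughput screen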
T4 sequence (Q96LD8 whole entry): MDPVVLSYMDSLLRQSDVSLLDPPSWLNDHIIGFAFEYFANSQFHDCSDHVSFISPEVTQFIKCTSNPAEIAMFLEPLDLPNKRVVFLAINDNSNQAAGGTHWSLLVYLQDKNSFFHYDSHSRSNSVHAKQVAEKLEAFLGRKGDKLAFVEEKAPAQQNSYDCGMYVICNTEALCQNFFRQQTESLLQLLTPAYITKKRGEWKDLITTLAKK

[7] = reduction of Shn3 3'UTR-driven luciferase in osteoblasts – cell-based, Clone20 osteoblasts, firefly luciferase, cherry-picked, dose response (AID 624132); assay type: functional;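 further: firefly luciferase luminescence from reporter carrying the Shn3 3'UTR in osteoblasts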
[8] = loss of viability in HepG2 cells – cell-based, CellTiter-Glo, cherry-picked, cytotoxicity control for Shn3 inhibitor project, dose response (AID 624134); assay type: functional
[9] = non-specific 3'UTR reporter inhibition in Clone20-Shn3RL – cell-based, Renilla luciferase, cherry-picked, counter-screen for Shn3 inhibitor project, dose response (AID 624133); assay type: functional
[10] = blockers of HIV-1 envelope-mediated cell-cell fusion – cherry-pick, dose response (AID 652057); assay type: functional, cell-based
[11] = viability loss in CEM21 cells – cell-based, CellTiter-Glo luminescence, cherry-picked, cytotoxicity control for viral fusion inhibitor project, dose response (AID 652042); assay type: functional;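 further: potency for signal decrease meaning cytotoxicity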
[12] = blockers of HIV-1 ZM109 envelope-driven cell-cell fusion – HeLa effector, CEM target cells, luciferase, cherry-pick, dose response (AID 652058); assay type: functional, cell-based;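 further: luciferase signal from HIV-1 Env mediated cell-cell fusion of effector and target cells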
[13] = off-target signal loss in HeLa-CEM21 co-culture – HeLa F-luc CTL cells, cherry-picked, counter-screen for HIV-1 Env fusion inhibitor project, dose response (AID 652040); assay type: functional, cell-based;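 further: potency for signal decrease marking cytotoxic or nonspecific inhibition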
[14] = HIV-1 AD8 envelope cell-cell fusion blockers – cherry-pick, dose response (AID 652062); assay type: functional, cell-based;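 further: luciferase signal from cell-cell fusion driven by HIV-1 clade B AD8 Env; potency is for inhibitors of fusion seen as a drop in luminescence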
[15] = test system: HEK293; test: cells; details: Homo sapiens
[16] = test system: HEK293; test: cells; details: Homo sapiens; remark: listed apart in the source
[17] = target: T5, Phospholipase D1 (Homo sapiens, UniProt Q13393); test: cellular phospholipase D1 inhibition IC50 – cell-based, dose response (AID 602151); assay type: functional;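 further: cellular PLD1 assay in Calu-1 cells stimulated with PMA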
T5 sequence (Q13393 whole entry): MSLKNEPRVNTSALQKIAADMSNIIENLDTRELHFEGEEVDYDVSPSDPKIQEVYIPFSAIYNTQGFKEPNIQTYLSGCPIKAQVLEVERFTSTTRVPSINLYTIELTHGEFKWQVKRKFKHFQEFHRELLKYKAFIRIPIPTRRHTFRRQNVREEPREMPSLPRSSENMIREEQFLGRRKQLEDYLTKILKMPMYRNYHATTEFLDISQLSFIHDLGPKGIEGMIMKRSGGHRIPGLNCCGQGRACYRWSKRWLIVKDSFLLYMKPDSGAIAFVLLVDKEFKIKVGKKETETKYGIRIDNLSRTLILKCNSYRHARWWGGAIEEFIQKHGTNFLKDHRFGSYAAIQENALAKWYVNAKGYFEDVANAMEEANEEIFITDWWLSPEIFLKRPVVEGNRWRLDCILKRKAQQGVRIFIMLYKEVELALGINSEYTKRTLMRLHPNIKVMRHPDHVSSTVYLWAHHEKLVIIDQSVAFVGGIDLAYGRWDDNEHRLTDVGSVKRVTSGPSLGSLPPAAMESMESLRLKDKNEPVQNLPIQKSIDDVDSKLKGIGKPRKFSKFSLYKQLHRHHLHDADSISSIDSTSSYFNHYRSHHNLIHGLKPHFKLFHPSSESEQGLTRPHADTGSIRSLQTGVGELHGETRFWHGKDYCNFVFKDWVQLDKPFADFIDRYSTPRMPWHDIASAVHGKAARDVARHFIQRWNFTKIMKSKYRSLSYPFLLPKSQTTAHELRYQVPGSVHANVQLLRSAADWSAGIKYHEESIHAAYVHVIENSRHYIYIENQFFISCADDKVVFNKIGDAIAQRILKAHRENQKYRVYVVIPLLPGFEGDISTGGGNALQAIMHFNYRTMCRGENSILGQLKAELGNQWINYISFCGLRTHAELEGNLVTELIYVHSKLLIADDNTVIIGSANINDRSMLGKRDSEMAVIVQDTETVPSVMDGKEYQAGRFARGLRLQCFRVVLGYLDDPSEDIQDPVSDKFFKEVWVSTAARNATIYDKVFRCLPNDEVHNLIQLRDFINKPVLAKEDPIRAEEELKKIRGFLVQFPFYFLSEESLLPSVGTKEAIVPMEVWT

[18] = target: Phospholipase D2 (Homo sapiens, UniProt O14939); test: cellular phospholipase D2 inhibition IC50 – cell-based, dose response (AID 602147); assay type: functional;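 further: cellular assay in HEK293 cells overexpressing GFP-tagged PLD2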
[19] = target: T6, Aurora kinase A (Homo sapiens, UniProt O14965); assay type: functional;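 further: value from the Navigating the Kinome kinase panel profiling, panel entry STK6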
T6 sequence (O14965 whole entry): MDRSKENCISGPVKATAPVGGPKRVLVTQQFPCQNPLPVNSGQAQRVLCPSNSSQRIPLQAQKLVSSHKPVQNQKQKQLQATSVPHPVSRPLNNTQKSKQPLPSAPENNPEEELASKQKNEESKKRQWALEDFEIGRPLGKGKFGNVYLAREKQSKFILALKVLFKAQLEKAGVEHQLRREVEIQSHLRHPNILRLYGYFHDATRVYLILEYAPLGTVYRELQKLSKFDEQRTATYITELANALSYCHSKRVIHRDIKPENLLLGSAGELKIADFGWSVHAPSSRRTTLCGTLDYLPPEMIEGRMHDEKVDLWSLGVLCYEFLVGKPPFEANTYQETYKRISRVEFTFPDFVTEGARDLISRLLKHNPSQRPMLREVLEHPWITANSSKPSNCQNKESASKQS

[20] = target: Vascular endothelial growth factor receptor 2 (Homo sapiens, UniProt P35968); assay type: functional
[21] = target: Aurora kinase B (Homo sapiens, UniProt Q96GD4); assay type: functional
Sequence of Aurora kinase B (Q96GD4 whole entry): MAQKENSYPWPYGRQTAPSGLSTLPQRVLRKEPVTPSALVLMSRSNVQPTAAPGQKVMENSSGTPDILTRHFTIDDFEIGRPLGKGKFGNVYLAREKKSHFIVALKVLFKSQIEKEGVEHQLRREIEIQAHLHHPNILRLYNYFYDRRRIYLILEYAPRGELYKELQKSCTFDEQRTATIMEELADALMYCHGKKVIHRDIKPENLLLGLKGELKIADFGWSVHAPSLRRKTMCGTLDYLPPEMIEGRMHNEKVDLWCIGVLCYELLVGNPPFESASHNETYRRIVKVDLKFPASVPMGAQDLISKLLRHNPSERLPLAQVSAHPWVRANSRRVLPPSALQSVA

Sequence of Phospholipase D2 (O14939 whole entry): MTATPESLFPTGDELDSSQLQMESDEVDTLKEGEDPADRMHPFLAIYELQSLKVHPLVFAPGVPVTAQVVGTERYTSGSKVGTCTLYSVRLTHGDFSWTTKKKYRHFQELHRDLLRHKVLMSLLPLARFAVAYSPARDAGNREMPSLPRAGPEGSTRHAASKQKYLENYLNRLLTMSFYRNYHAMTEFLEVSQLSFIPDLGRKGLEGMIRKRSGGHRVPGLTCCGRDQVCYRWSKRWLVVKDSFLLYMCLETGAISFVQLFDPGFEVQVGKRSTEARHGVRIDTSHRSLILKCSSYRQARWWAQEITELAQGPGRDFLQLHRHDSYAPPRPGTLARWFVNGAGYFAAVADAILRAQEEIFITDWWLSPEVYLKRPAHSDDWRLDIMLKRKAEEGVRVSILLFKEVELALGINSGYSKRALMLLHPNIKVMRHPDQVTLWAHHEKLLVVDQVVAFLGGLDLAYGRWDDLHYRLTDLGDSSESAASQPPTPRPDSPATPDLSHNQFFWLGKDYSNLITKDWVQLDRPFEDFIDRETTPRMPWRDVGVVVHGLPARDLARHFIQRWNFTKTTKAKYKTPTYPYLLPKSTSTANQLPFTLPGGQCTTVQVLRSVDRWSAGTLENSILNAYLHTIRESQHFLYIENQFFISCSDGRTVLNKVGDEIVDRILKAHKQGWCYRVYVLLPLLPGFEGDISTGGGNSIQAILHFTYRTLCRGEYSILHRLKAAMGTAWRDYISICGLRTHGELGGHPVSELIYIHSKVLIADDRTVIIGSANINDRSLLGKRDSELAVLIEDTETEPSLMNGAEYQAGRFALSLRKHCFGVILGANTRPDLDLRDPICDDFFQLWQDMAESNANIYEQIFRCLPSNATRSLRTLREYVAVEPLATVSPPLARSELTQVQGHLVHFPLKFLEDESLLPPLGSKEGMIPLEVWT
Sequence of Vascular endothelial growth factor receptor 2 (P35968 whole entry): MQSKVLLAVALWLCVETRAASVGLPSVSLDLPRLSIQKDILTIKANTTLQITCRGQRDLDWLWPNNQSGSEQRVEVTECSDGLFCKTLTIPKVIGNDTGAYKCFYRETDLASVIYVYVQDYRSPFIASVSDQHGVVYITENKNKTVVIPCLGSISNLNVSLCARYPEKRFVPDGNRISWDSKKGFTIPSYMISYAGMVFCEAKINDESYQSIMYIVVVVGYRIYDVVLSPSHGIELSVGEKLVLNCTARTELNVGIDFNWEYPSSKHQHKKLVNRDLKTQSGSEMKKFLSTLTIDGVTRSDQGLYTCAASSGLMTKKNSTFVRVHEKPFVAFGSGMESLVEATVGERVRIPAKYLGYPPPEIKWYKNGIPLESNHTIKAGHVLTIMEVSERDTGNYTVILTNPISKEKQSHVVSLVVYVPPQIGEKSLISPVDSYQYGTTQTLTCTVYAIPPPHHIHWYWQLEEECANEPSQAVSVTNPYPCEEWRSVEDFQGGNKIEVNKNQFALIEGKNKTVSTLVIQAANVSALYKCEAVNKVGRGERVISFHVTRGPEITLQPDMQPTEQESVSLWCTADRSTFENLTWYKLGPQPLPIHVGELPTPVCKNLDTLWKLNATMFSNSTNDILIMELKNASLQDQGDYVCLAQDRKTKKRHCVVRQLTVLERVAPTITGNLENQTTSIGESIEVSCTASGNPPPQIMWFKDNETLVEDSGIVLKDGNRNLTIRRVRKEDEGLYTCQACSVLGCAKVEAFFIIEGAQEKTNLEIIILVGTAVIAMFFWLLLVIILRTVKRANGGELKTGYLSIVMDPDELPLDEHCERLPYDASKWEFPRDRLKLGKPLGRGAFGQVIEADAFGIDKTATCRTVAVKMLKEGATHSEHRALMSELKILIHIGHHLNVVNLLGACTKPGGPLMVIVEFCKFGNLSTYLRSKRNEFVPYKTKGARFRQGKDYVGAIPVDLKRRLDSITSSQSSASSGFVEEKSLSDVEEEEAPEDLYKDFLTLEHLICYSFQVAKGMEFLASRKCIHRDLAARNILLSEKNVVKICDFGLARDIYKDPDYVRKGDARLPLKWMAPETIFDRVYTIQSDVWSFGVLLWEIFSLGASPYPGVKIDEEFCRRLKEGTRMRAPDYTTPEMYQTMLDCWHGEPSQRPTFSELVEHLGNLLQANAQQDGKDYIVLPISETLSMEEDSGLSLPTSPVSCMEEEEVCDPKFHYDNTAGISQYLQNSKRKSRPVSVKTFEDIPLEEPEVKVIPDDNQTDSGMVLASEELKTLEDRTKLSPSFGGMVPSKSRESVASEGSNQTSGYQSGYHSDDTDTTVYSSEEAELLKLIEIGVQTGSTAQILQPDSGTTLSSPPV

COc1ccc(-c2cc(O)cc(O)c2)cc1
EC50 [1]: 3.8 µM (active) | EC50 [2]: 4.12 µM (active) | IC50 [3]: 30.9 µM (active) | IC50 [4]: 12.3 µM (active) | IC50 [5]: 41.1 µM (active) | IC50 [6]: 48 µM (active)

NC(CCc1ccccc1)c1csc(NC(=O)Nc2ccccc2Oc2ccccc2)n1 (stereo unspecified)
AC50 [7]: 7.18 µM (active) | AC50 [8]: 13.5 µM (active) | AC50 [9]: 13.6 µM (active) | AC50 [10]: 0.824 µM (active) | AC50 [11]: 11.4 µM (active) | AC50 [12]: 3.38 µM (active) | AC50 [13]: 1.65 µM (active) | AC50 [14]: 4.98 µM (active) | EC50 [15]: > 59.6 µM (inactive) | EC50 [16]: > 59.6 µM (inactive)

CN(CCN1CCC(n2c(=O)[nH]c3ccccc32)CC1)C(=O)c1ccc2ccccc2c1
IC50 [17]: 2.06 µM (active) | IC50 [18]: 20 µM (active)

CCCCS(=O)(=O)Nc1ccc2c(c1)C(=NO)c1ccccc1-2
Ki [19]: 1.26 µM (active) | Ki [20]: 1.58 µM (active) | Ki [21]: 0.01 µM (active)

CCCCC1(CC(=O)OCC)C(=O)N(c2ccccc2)N(c2ccccc2)C1=O
EC50 [15]: > 59.6 µM (inactive) | EC50 [16]: > 59.6 µM (inactive)

COc1ccc(COC(=O)c2c(C)nn(-c3ccccc3)c2Cl)cc1
IC50 [3]: 40.2 µM (active) | IC50 [4]: 19.4 µM (active) | IC50 [5]: 73.3 µM (active) | IC50 [6]: 98.1 µM (active)

C[C@H](CN1CCC2(CC1)C(=O)NCN2c1ccccc1)NC(=O)c1cc2cc(F)ccc2[nH]1
IC50 [17]: 0.002 µM (active) | IC50 [18]: 0.023 µM (active)

C[C@@H](CN1CCC2(CC1)C(=O)NCN2c1ccccc1)NC(=O)[C@@H]1C[C@H]1c1ccccc1
IC50 [17]: 2.56 µM (active) | IC50 [18]: 20 µM (active)
